Test results from US11066412B2, “Substituted pyrrolo[2,1-a]phthalazines and benzo[g]pyrrolo[2,1-a]phthalazines for the treatment of cancer” (Academia Sinica, priority 2017, dated 2021).
Where two headings read alike, the source gives them in different places.

Tests used:
pEGFP-N1 plasmid DNA = assay: DNA cross-linking, alkaline agarose gel electrophoresis; type: biochemical; conditions: 1-20 μM, 37° C., 2 hrs; FIG. 1
Method: In the present example, BO-2590, BO-2577 (Formula I-A) and BO-2698, BO-2755, BO-2762 and BO-2768 (Formula I-B) were tested for their DNA crosslinking activity, in which the cross-linking was analyzed by alkaline agarose gel electrophoresis. In brief, purified pEGFP-N1 plasmid DNA (1,500 ng) was mixed with various concentrations (1-20 μM) of the tested compounds in 40 μL binding buffer (3 mM sodium chloride/1 mM sodium phosphate, pH 7.4, and 1 mM EDTA). The reaction mixture was incubated at 37° C. for 2 hrs. At the end of reaction, the plasmid DNA was linearized by digestion with BamHI and followed by precipitation with ethanol. The DNA pellets were dissolved and denatured in alkaline buffer (0.5 N NaOH-10mM EDTA). An aliquot of 20 μL of DNA solution (1,000 ng) was mixed with 4 μL of 6× alkaline loading dye and then electrophoretically resolved on a 0.8% alkaline agarose gel with NaOH-EDTA buffer at 4° C. The electrophoresis was carried out at 18V for 22 h. After staining the gels with an ethidium bromide solution, the DNA was visualized under UV light. Results are illustrated in FIG. 1.

[1] = tested on: human lymphoblastic leukemia cell line (CCRF-CEM); assay: in vitro cytotoxicity, PrestoBlue assay; type: cell-based; conditions: read-out: IC50 CCRF-CEM
Method: (§1) All representative compounds of Formulae (I-A) and (I-B) were first evaluated for their in vitro cytotoxicity to human lymphoblastic leukemia cell line (CCRF-CEM) and its vinblastine-resistant sub-cell line (CCRF-CEM/VBL) (see Table 1).
(§2) After a 72-hr incubation in various concentrations of the newly synthesized compounds, the cytotoxic effects of them to all cell lines were determined by the PrestoBlue®(Invitrogen) assay using a microplate spectrophotometer. Briefly, at the end of treatment, an aliquot of PrestoBlue® solution was added and then cells were incubated at 37° C. for 1-2 hr. The absorbance at 570 and 600 nm was measured with a microplate reader. […] The ICso is defined by the concentration required to inhibit tumor cell growth by 50%. Data represent the mean±STDEV of three to six independent experiments for each compound.

VEGFR-2 = target: T1, VEGFR-2 (Homo sapiens, UniProt P35968); assay: VEGFR-2 activation, western blotting in EA.hy926 cells; type: cell-based; conditions: EA.hy926 cells, 12 hr; FIG. 3
T1 construct: endogenous in cells; host or cells: EA.hy926 endothelial cells
T1 sequence (P35968 20-1356): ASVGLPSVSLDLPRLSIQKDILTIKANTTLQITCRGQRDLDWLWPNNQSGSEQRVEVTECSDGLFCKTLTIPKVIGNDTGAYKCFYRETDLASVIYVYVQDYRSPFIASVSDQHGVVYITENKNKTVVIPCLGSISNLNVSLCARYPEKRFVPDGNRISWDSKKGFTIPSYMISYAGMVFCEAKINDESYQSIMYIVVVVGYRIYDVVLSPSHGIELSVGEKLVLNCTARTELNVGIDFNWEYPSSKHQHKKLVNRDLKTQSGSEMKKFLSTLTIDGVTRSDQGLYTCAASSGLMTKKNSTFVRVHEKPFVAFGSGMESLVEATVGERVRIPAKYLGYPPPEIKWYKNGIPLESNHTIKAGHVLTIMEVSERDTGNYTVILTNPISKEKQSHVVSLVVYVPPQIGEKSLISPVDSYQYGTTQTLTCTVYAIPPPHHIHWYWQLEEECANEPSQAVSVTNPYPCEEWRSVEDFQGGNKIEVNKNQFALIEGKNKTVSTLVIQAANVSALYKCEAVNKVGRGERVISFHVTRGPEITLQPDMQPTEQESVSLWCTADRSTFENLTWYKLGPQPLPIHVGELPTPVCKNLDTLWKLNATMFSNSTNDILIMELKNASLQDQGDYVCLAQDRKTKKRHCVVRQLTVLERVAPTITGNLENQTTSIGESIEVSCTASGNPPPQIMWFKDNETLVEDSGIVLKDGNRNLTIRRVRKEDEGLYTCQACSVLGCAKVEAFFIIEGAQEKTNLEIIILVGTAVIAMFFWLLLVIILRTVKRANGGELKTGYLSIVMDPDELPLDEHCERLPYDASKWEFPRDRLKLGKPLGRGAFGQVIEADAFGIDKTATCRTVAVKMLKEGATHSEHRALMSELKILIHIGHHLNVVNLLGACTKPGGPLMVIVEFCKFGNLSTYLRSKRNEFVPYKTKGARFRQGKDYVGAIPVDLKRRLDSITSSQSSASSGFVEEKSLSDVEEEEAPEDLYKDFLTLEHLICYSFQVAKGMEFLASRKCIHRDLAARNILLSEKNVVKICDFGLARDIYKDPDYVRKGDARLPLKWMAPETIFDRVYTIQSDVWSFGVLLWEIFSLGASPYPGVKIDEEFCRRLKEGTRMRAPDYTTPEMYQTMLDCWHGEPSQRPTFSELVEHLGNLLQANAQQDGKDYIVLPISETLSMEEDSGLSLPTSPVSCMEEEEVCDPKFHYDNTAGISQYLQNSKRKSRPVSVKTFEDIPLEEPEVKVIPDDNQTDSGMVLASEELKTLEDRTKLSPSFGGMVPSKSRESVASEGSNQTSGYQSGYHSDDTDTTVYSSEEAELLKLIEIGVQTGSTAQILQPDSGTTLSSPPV
Method: In the present example, BO-2590 and BO-2577 were subject to the test of their activity in suppressing VEGFR-2 by western blotting analysis. Briefly, the endothelial EA.hy926 cells were incubated with BO-2590 or BO-2577 at various concentrations for 12 hr. The primary antibodies, anti-VEGFR-2 and anti-p-VEGFR-2, were used to blot the proteins of total VEGFR-2 and p-VEGFR-2, respectively. Results are illustrated in FIG. 3.

[2] = tested on: non-small cell lung cancer H460; assay: in vitro cytotoxicity, PrestoBlue assay; type: cell-based, human; conditions: Table 2
Method: as §1, §2

[3] = tested on: vinblastine-resistant sub-cell line (CCRF-CEM/VBL); assay: in vitro cytotoxicity, PrestoBlue assay; type: cell-based, human; conditions: for IC50: read-out: IC50 CEM/VBL; for resistance factor (IC50 CEM/VBL vs IC50 of the parent cell line): number in brackets
Method: as §1, §2

pancreatic cancer PacaS1 = assay: in vitro cytotoxicity, PrestoBlue assay; type: cell-based, human; conditions: Table 2
Method: as §1, §2

colon cancer HCT-116 = assay: in vitro cytotoxicity, PrestoBlue assay; type: cell-based, human; conditions: Table 2
Method: as §1, §2

[4] = tested on: small cell lung cancer H526; assay: in vitro cytotoxicity, PrestoBlue assay; type: cell-based, human
H1417 = assay: in vitro cytotoxicity to SCLC cells; type: cell-based, human; conditions: Table 3
Method: as §2

H211 = assay: in vitro cytotoxicity to SCLC cells; type: cell-based, human; conditions: Table 3
Method: as §2

H146 = assay: in vitro cytotoxicity to SCLC cells; type: cell-based, human; conditions: Table 3
Method: as §2

H82 = assay: in vitro cytotoxicity to SCLC cells; type: cell-based, human; conditions: Table 3
Method: as §2

[5] = tested on: human SCLC H526 xenografts; assay: tumor growth in xenograft-bearing nude mice; type: in vivo; conditions: micelle formulation (Kolliphor/TWEEN 80/PEG400/ethanol/D5W); BO-2768 at 20 mg/kg twice daily; FIG. 12, panel A
Method: Athymic nude mice bearing the nu/nu gene were obtained from the National Laboratory Animal Center (Taipei, Taiwan). Male nude mice (6 weeks or older weighing 20-24 g or more) were used for all human tumor xenografts. The tested compounds were intravenously administered through tail vein. Tumor volume was determined by measuring the length x width x height (or width) with calipers. […] For tumor-bearing nude mice during the course of the experiment, the % body weight changes refer to: (the total weight on reading day/the total weight on day treatment started)×100.
In all experiments, the tumor cells were subcutaneously implanted in nude mice, and the BO-2590L was administered via tail vein when the tumor size reaching approximate 100 mm^3. […]
To confirm the therapeutic activity of BO-2590L, comparative experiments carried out by known chemotherapeutic agents, such as vatanalib and cisplatin, were also performed. Briefly, the H526 xenograft-bearing mice were divided into 4 groups which were treated with vehicle, BO-2590L (10 mg/kg, QD×9), vatalanib (100 mg/kg, QD×9), and cisplatin (4 mg/kg, Q2D×3), respectively. Results are illustrated in FIG. 11.
Results are illustrated in FIGS. 12 and 13.

[6] = body weight changes of xenograft-bearing nude mice; type: in vivo; conditions: H526 xenograft mice, micelle formulation; FIG. 12, panel B
Method: Athymic nude mice bearing the nu/nu gene were obtained from the National Laboratory Animal Center (Taipei, Taiwan). Male nude mice (6 weeks or older weighing 20-24 g or more) were used for all human tumor xenografts. The tested compounds were intravenously administered through tail vein. Tumor volume was determined by measuring the length x width x height (or width) with calipers. The vehicle used for the tested compounds was normal saline (0.9% NaCl isotonic solution). For tumor-bearing nude mice during the course of the experiment, the % body weight changes refer to: (the total weight on reading day/the total weight on day treatment started)×100.

[7] = Homo sapiens, CCRF-CEM, 72-hr incubation, mean ± STDEV of three to six experiments
[8] = 72-hr incubation, mean ± STDEV of three to six experiments

SMILES	melting point [°C]	formation of DNA interstrand crosslinks (pEGFP-N1 plasmid DNA)	resistance factor (IC50 CEM/VBL vs IC50 of the parent cell line) [3] [×]	IC50 Paca SI (pancreatic cancer PacaS1) [nM]	IC50 (H1417) [nM]	IC50 (H211) [nM]	IC50 (H146) [nM]	IC50 (H82) [nM]	IC50 [1, 8] [nM]	IC50 [2] [nM]	IC50 [3, 8] [nM]	IC50 (colon cancer HCT-116) [nM]	IC50 ([4]; Table 2, read-out: IC50 H526) [nM]	IC50 ([4]; Table 3, read-out: IC50 H526) [nM]	other results
CCc1c(CO)c(CO)c2c3ccccc3c(N3CCOCC3)nn12 [BO-2577, (3-Ethyl-6-morpholinopyrrolo[2,1-a]phthalazine-1,2-diyl)-dimethanol]	180 to 182	induced DNA interstrand crosslinks	0.84	13020 ± 930	–	–	–	–	–	–	–	–	–	–	IC50 [1, 7]: 3040 ± 380 nM; p-VEGFR-2 protein levels (VEGFR-2): marked suppression in p-VEGFR-2 protein levels; total protein levels of VEGFR-2 (VEGFR-2): did not significantly change the total protein levels of VEGFR-2; IC50 ([2]; Homo sapiens, NCI-H460): 18570 ± 180 nM; IC50 [3, 7]: 2550 ± 120 nM; IC50 (colon cancer HCT-116; Homo sapiens, HCT-116): 11500 ± 1660 nM; IC50 ([4]; Homo sapiens, NCI-H526, Table 2, read-out: IC50 H526): 750 ± 120 nM
Cc1c(CO)c(CO)c2c3ccccc3c(N3CCCC3)nn12 [BO-2686, (3-Methyl-6-(pyrrolidin-1-yl)pyrrolo[2,1-a]phthalazine-1,2 diyl)dimethanol]	160 to 162	–	0.51	11730 ± 1160	–	–	–	–	–	–	–	–	–	–	IC50 ([1]; Homo sapiens, CCRF-CEM, 72 h): 920 ± 70 nM; IC50 ([2]; Homo sapiens, NCI-H460): 3870 ± 730 nM; IC50 ([3]; Homo sapiens, CCRF-CEM, 72 h): 470 ± 50 nM; IC50 (colon cancer HCT-116; Homo sapiens, HCT-116): 3960 ± 60 nM; IC50 ([4]; Homo sapiens, NCI-H526, read-out: IC50 H526): 300 ± 40 nM
Cc1c(CO)c(CO)c2c3cc4ccccc4cc3c(N3CCOCC3)nn12 [BO-2698]	–	induced DNA interstrand crosslinks	0.86	880 ± 260	370 ± 10	220 ± 70	1020 ± 160	400 ± 160	380 ± 50	1180 ± 100	330 ± 30	1130 ± 20	40 ± 10	90 ± 60	–
CCNC(=O)OCc1c(COC(=O)NCC)c2c3ccccc3c(N3CCCC3)nn2c1C [BO-2716, (3-Methyl-6-(pyrrolidin-1-yl)pyrrolo[2,1-a]phthalazine-1,2-diyl)-bis(methylene) bis(ethylcarbamate)]	140 to 142	–	1.47	–	–	–	–	–	–	–	–	–	–	–	IC50 ([1]; Homo sapiens, CCRF-CEM, 72 h): 1420 ± 90 nM; IC50 ([3]; Homo sapiens, CCRF-CEM, 72 h): 2100 ± 90 nM
Cc1c(CO)c(CO)c2c3cc4ccccc4cc3c(N3CCCCC3)nn12 [BO-2755]	–	induced DNA interstrand crosslinks	1.26	10010 ± 1640	1370 ± 30	800 ± 330	2650 ± 1390	1480 ± 660	800 ± 90	3030 ± 480	1010 ± 110	4130 ± 270	120 ± 40	220 ± 60	–
Cc1c(CO)c(CO)c2c3cc4ccccc4cc3c(N3CCCC3)nn12 [BO-2762, (3-Methyl-6-(pyrrolidin-1-yl)benzo[g]pyrrolo[2,1-α]phthalazine-1,2-diyl)dimethanol]	–	induced DNA interstrand crosslinks	0.74	1040 ± 80	600 ± 340	200 ± 120	1010 ± 240	410 ± 150	190 ± 10	780 ± 240	140 ± 20	930 ± 120	50 ± 10	30 ± 10	–
Cc1c(CO)c(CO)c2c3cc4ccccc4cc3c(N3CCC(N4CCCCC4)CC3)nn12 [BO-2792]	–	–	1.51	–	250 ± 50	20 ± 20	200 ± 150	40 ± 10	17 ± 9	–	25 ± 5	–	–	3 ± 3	tumor size [5]: as effective as irinotecan and cisplatin in reducing the tumor size; deleterious effects on the bodyweight of the test animals [6]: none
CCc1c2c(nc3ccc(OC(=O)N4CCC(N5CCCCC5)CC4)cc13)-c1cc3c(c(=O)n1C2)COC(=O)[C@]3(O)CC [Irinotecan, reference compound]	–	–	–	–	–	–	–	–	–	–	–	–	–	–	IC50 (H1417; Homo sapiens, NCI-H1417): 9790 ± 840 nM; IC50 (H211; Homo sapiens, NCI-H211): 8810 ± 460 nM; IC50 (H146; Homo sapiens, NCI-H146): 11500 ± 6530 nM; IC50 (H82; Homo sapiens, NCI-H82): 2260 ± 10 nM; tumor size [5]: slowly increased in size; IC50 ([4]; Homo sapiens, NCI-H526, Table 3, read-out: IC50 H526): 590 ± 300 nM; deleterious effects on the bodyweight of the test animals [6]: none
